Results on six molecules are retold here after US20060148059A1, “Salt tolerant l-myo-inositol 1-phosphate synthase and the process of obtaining the same” (priority 2002, published 2006).

The test system of data set [1] is Oryza sativa L-myo-inositol 1-phosphate synthase (RINO), native. The settings on record: data from RayChaudhury et al. (1997); cited from earlier work.
The conditions of data set [2]: not told.
Description: FIG. 5: Gel filtration pattern on Superose-12 of RINO1 and PINO1 proteins in absence and presence of 400 mM NaCl. (A) RINO1 without NaCl; (B) RINO1 with NaCl; (C) PINO1 without NaCl; (D) PINO1 with NaCl. Insets depict SDS-PAGE and immuno dot blots of indicated fractions.
A short description of data set [3]: pH and temperature optimum of enzyme activity. The format is biochemical. Here is the method:
The purified bacterially expressed RINO1 and PINO1 proteins were characterized for their biochemical properties (Table-1). […] For both the cases optimum enzyme activity was at 37° C. whereas optimum pH for Porteresia recombinant synthase (PINO1) was 8.0 and the same for Oryza recombinant synthase (RINO1) was 7.5.

Data set [4] is described as follows: Tryptophan fluorescence in increasing NaCl concentrations. The format is physicochemical. The settings on record: recombinant preparations. The method, then:
FIG. 4: Tryptophan fluorescence of purified RINO1 (A) and PINO1 (B) proteins in increasing NaCl concentrations; tracing 1,2,3 & 4 correspond to 0, 100 mM, […] and 400 mM NaCl in the system.
Tryptophan Fluorescence spectra of the recombinant preparations of the inositol synthase(s) from Oryza sativa (RINO1) and Porteresia coarctata (PINO1) are shown in Panel A and B respectively in FIG. 4. […] The emission maxima in both the cases remain close to 336 nm.

For data set [5] the following is noted: enzyme activity; data from RayChaudhury et al. (1997); cited from earlier work.
Data set [6] is described as follows: Inositol synthase activity in presence of increasing NaCl concentration. The format is biochemical. The settings on record: NaCl in vitro. The source says: With respect to salt-sensitivity, RINO1 and PINO1 proteins differ a great deal.
FIG. 3: Inositol synthase activity in presence of increasing NaCl concentration for purified native (A) and recombinant (B) enzymes.

Read-outs that look alike come from different tables or passages of the source.

As usually defined, the Km is the concentration of substrate that gives half-maximal velocity. As for `O=P(O)(O)OC[C@H]1OC(O)[C@H](O)[C@@H](O)[C@@H]1O` (stereo partly shown) [G6P, Glucose 6 phosphate], in data set [1], the Km was 1970 µM and the Vmax was 0.07 μmol^−m.
Regarding “L-myo-inositol 1-phosphate synthase [PINO Recombinant]”, the “Gel-permeation elution pattern on addition of salt” value in data set [2] is given as “elutes at the same place”. Further, in data set [3], the “Temperature Optimum” value amounted to 37 °C and the pH optimum is 8.0. Further, in data set [3] (listed as PINO1), the “Temperature Optimum” value came out at 37 °C and the pH optimum was determined as 8.0. Further, in data set [4] (listed as PINO1), the “Tryptophan fluorescence intensity in presence of added salt” value is on record as “rather insensitive”.
Turning to `NC(=O)c1ccc[n+]([C@@H]2O[C@H](COP(=O)([O-])OP(=O)(O)OC[C@H]3O[C@@H](n4cnc5c(N)ncnc54)[C@H](O)[C@@H]3O)[C@@H](O)[C@H]2O)c1` [NAD], in data set [1], the Michaelis-Menten constant (Km) was 140 µM and the Vmax is 0.09 μmol^−m.
Take “L-myo-inositol 1-phosphate synthase [RINO Native]”: in data set [5], the “Temperature Optimum” value was 35 °C and the pH optimum is reported as 8.2. The “salt-sensitivity of inositol synthase activity” value in data set [6] is reported as “sensitive to NaCl”.
As to “L-myo-inositol 1-phosphate synthase [PINO Native]”, in data set [3], the “Temperature Optimum” value came out at 35 °C and the pH optimum was 7.5.
Take “L-myo-inositol 1-phosphate synthase [RINO Recombinant]”: in data set [2], the “Gel-permeation elution pattern on addition of salt” value was “substantial reduction in the original peak and concurrent appearance of a high molecular weight fraction”. The “salt-sensitivity of inositol synthase activity” value in data set [6] is “sensitive to NaCl”. For the same molecule, the “Temperature Optimum” value in data set [3] and in data set [3] (listed as RINO1) was 37 °C each time. The pH optimum in data set [3] and in data set [3] (listed as RINO1) was 7.5 throughout. Besides, the “Tryptophan fluorescence intensity in presence of added salt” value in data set [4] (listed as RINO1) is “quenched significantly”.
